According to patent US8063047B2, “Pyridazine compounds and methods” (Centre National de la Recherche Scientifique (CNRS), priority 2004, dated 2011):

Experiments:
[1] = system: IL-1β production by BV-2 mouse microglial cells stimulated with LPS; experiment: LPS-induced IL-1β production in BV-2 microglial cells; assay type: cell-based; details: BV-2 cells, LPS 100 ng/ml, 16 hrs, cell lysates, MSD assay
Procedure: (§1) BV-2 cells were treated with LPS (100 ng/ml) in the absence or presence of increasing concentrations of MW01-2-151WH or three structurally related analogs (MW01-3-202WH and MW01-3-173WH) for 16 hrs with levels of IL-1β and TNFα in cell lysates measured by the Meso-Scale Discovery electrochemiluminescent detection assay (See, e.g., Example 1, Materials and Methods). Data are the mean+/−SEM of triplicate determinations.
(§2) Biological investigations were done with compounds disclosed herein that were >95% homogenous as determined by HPLC/MS analysis. As part of a hierarchal, cell-based screening protocol, the compounds were screened for their ability to block IL-1β and TNFα production by BV-2 mouse microglial cells stimulated with LPS. The data for MWO1-2-1-151WH and the three structurally related analogs (MW01-3-202WH and MW01-3-173WH,) is shown (See, e.g., FIG. 2). Derivative groups that may be used to modify the compounds of the present invention can be found in U.S. Patent Application No. 20030176437 (herein incorporated by reference in its entirety for all purposes).
(§3) Cell Culture Assays. […] EL-1/3 and TNFa levels in cell lysates were determined by electro-chemiluminescent detection in a Meso-Scale Discovery (MSD) kit, as per the manufacturer's instructions.

[2] = system: TNFα production by BV-2 mouse microglial cells stimulated with LPS; experiment: LPS-induced TNFα production in BV-2 microglial cells; assay type: cell-based; details: BV-2 cells, LPS 100 ng/ml, 16 hrs, cell lysates, MSD assay
Procedure: as §1, §2, §3

[3] = system: Accumulation of the NO metabolite, nitrite, BV-2 microglial cells; experiment: Nitrite (NO metabolite) accumulation in BV-2 microglial cells; assay type: cell-based, mouse; details: BV-2 cells, concentrations up to 50 μM
Procedure: FIG. 4 A-C are graphs of the cell-based activity of MW01-2-151WH in BV-2 microglial cells. MW01-2-151WH is a concentration-dependent and selective inhibitor of proinflammatory cytokine production by activated glia. […] (C) Accumulation of the NO metabolite, nitrite, was not inhibited at concentrations up to 50 μM.

[4] = system: Aβ-induced neuroinflammation and synaptic damage; experiment: Aβ1-42 ICV infusion mouse model, hippocampal endpoints; assay type: in vivo, C57B1/6 mice; details: mice infused ICV with Aβ1-42; […] per day i.p. for 14 days
Procedure: FIG. 3A-F are graphs of MW01-2-151WH suppression of Aβ-induced neuroinflammation and synaptic damage. Hippocampal sections or extracts from vehicle-infused mice (control), Aβ-infused mice injected with solvent, and Aβ-infused mice injected with MW01-2-151 WH were evaluated for neuroinflammation by measurement of the levels of the pro-inflammatory cytokines IL-1β (A), TNFα(B), and S100B (C), and the number of GFAP-positive astrocytes, (D) and F4/80-positive microglia, (E), and evaluated for synaptic damage by analysis of the levels of the postsynaptic density protein 95 (PSD-95) (F). Data are from one of two independent experiments, and are the mean±SEM for 4-5 mice per experimental group.
In vivo Assays. Aβ-42 infusions and treatment of C57B1/6 mice with MW01-2-151WH were performed as previously described. Briefly, oligomeric […] was infused ICV for 28 days with a micro-osmotic pump. At post-operative day 21 and continuing for 14 days thereafter, mice were injected intraperitoneally once daily with either MW01-2-151WH (2.5 mg/kg per day) or solvent control (10% DMSO in saline). At post-operative day 60, mice were perfused and sacrificed, and hippocampal endpoints measured as previously described. […]

liver, lungs, and kidney = experiment: Graded dose, acute toxicity assay (histology of liver, lung, kidney); assay type: in vivo; details: mice, oral gavage once daily for 3 days, up to 50 mg/kg
Procedure: Vehicle (panels A,C,E) or MW01-2-151 WH (panels B,D,F) was orally administered (gavage) to mice daily for three days at 50 mg/kg (20-fold greater than a therapeutic dose, described in Materials and Methods).
Graded dose, acute toxicity assays Vehicle (30% DMSO) or MW01-2-151WH (3.1, 12.5 or 50 mg/kg) in 0.5% carboxymethylcellulose was administered by oral gavage once daily for 3 days. On the 4th day, mice were anesthetized with pentobarbital, intubated and the lungs were inflated with an air containing syringe. The mice were perfused through the right ventricle and the lungs, liver and kidneys were then harvested and fixed in 4% paraformaldehyde for histology. Paraffin embedded hematoxylin & eosin stained sections of each organ were prepared by standard techniques.

Molecule | inhibition of LPS-induced IL-1β production [1] | inhibition of LPS-induced IL-1β production ([1]; listed as MW01-2-151 WH) | inhibition of LPS-induced TNFα production [2] | inhibition of LPS-induced TNFα production ([2]; listed as MW01-2-151 WH) | Accumulation of the NO metabolite, nitrite [3] | number of F4/80 positive microglia [4] | tissue toxicity (histology of liver, lung, kidney), acute (liver, lungs, and kidney) | tissue toxicity (histology of liver, lung, kidney), acute (liver, lungs, and kidney; listed as MW01-2-151 WH)
5,6-dihydro-3-(4-(pyrimidin-2-yl)piperazin-1-yl)benzo[h]cinnoline [MW01-2-151WH] | Concentration-dependent inhibition | suppressed | Concentration-dependent inhibition | suppressed | not inhibited | suppressed | No tissue toxicity was observed | no histological evidence of toxicity
5,6-dihydro-3-(4-phenylpiperazin-1-yl)benzo[h]cinnoline [MW01-3-173WH] | somewhat less suppressive activity |  | somewhat less suppressive activity |  |  |  |  | 
c1ccc(N2CCN(c3cc4c(nn3)-c3ccccc3CC4)CC2)nc1 [MW01-3-202WH, 5,6-dihydro-3-(4-(pyridm-2-yl)piperazin-1-yl)benzo[h]cinnoline] | somewhat less suppressive activity |  | somewhat less suppressive activity |  |  |  |  | 
